Data reported in patent US7608617B2, “Naphthaline derivatives as H3 inverse agonists” (Hoffmann-La Roche Inc., priority 2004, dated 2009).
Structures can show the parent of a compound that is named as a salt.

Molecular target: T1, histamine 3 receptor (H3R) (Homo sapiens, UniProt Q9Y5N1)
T1 construct: expressed in transfected cells; host or cells: CHO cells (HR3-CHO cell line), membranes
Test: Binding assay with 3H-(R)α-methylhistamine (competition binding, membranes of the human HR3-CHO cell line)
Conditions: competition with 3H(R)α-Methylhistamine 1 nM, Ki calculated from IC50 by Cheng-Prusoff equation
Protocol: Binding assay with ^3H—(R)α-methylhistamine
Saturation binding experiments were performed using HR3—CHO membranes prepared as described in Takahashi, K, Tokita, S., Kotani, H. (2003) J. Pharmacol. Exp. Therapeutics 307, 213-218.
An appropriate amount of membrane (60 to 80 μg protein/well) was incubated with increasing concentrations of ^3H(R)α-Methylhistamine di-hydrochloride (0.10 to 10 nM). Non specific binding was determined using a 200 fold excess of cold (R)α-Methylhistamine dihydrobromide (500 nM final concentration). The incubation was carried out at room temperature (in deep-well plates shaking for three hours). The final volume in each well was 250 μl. The incubation was followed by rapid filtration on GF/B filters (pre-soaked with 100 μl of 0.5% PEI in Tris 50 mM shaking at 200 rpm for two hours). The filtration was made using a cell-harvester and the filter plates were then washed five times with ice cold washing buffer containing 0.5 M NaCl. After harvesting, the plates were dried at 55° C. for 60 min, then we added scintillation fluid (Microscint 40, 40 microl in each well) and the amount of radioactivity on the filter was determined in Packard top-counter after shaking the plates for two hours at 200 rpm at room temperature.
Binding Buffer: 50 mM Tris-HCl pH 7.4 and 5 mM MgCl2x 6H2O pH 7.4. Washing Buffer: 50 mM Tris-HCl pH 7.4 and 5 mM MgCl2×6H2O and 0.5 M NaCl pH 7.4:
Indirect measurement of affinity of H3R inverse agonists: twelve increasing concentrations (ranging from […] to 0.3 nM) of the selected compounds were always tested in competition binding experiments using membrane of the human HR3-CHO cell line. An appropriate amount of protein, e.g. approximately 500 cpm binding of RAMH at Kd, were incubated for 1 hour at room temperature in 250 μl final volume in 96-well plates in presence of ^3H(R)α-Methylhistamine (1 nM final concentration=Kd). […]
All compounds were tested at a single concentration in duplicates. […] Ki's were calculated from IC50 based on Cheng-Prusoff equation (Cheng, Y, Prusoff, W H (1973) Biochem Pharmacol 22, 3099-3108).

T1 sequence (Q9Y5N1 whole entry): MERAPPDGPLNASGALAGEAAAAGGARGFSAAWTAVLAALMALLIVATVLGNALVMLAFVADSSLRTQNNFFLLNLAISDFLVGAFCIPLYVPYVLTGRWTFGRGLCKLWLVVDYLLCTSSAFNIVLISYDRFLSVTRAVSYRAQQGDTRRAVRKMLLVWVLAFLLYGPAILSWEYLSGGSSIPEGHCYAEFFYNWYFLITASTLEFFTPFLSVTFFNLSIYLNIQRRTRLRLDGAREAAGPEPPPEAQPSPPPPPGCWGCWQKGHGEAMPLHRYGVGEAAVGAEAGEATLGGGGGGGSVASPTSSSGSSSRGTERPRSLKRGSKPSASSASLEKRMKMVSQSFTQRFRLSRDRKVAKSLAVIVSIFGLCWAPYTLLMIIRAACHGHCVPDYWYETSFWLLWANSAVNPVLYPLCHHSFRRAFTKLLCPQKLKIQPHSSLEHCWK

Ki [nM]	SMILES
111	CC1CCCCN1CCCOc1ccc2cc(C(=O)N(C)Cc3ccccc3)ccc2c1 (stereo not drawn) [Example 13, 6-[3-(2-methyl-piperidin-1-yl)-propoxy]-naphthalene-2-carboxylic acid benzyl-methyl-amide 1:1 hydrochloride]
26	O=C(c1ccc2cc(OCCCN3CCCCC3)ccc2c1)N1CCCCC1 [Example 1, piperidin-1-yl-[6-(3-piperidin-1-yl-propoxy)-naphthalen-2-yl]-methanone 1:1 hydrochloride]
571	CC1CCN(C(=O)c2ccc3cc(OCCC4CCCN4C)ccc3c2)CC1 (stereo not drawn) [Example 31, (4-methyl-piperidin-1-yl)-{6-[2-(1-methyl-pyrrolidin-2-yl)-ethoxy]-naphthalen-2-yl}-methanone 1:1 hydrochloride]
